Consider eight molecules from patent US20230416271A1, “HETEROARYLQUINAZOLINE COMPOUNDS AS PROTEIN KINASE INHIBITORS” (CHENGDU CYNOGEN BIO-PHARMACEUTICAL TECHNOLOGY CO., LTD., priority 2020, published 2023).

What all share (format): biochemical
Experiment [1] addresses CDK2/Cyclin A2 (Homo sapiens (Human), UniProt P24941). Kind of experiment: Kinase activity assay (Caliper Mobility Shift Assay), CDK2/Cyclin A2. On the procedure: (§1) The inhibitory effect of compounds against the kinase CDK4/cyclin D3 was detected by Caliper Mobility Shift Assay method. The final concentration of the compounds to be tested was set at 10 concentrations starting from 1 uM by 3-fold serial dilution. 5 μL of compounds at 5-fold final concentration and 10 μL of CDK4/cyclin D3 kinase solution at a final concentration of 10 nM was added to a 384-well reaction plate, respectively. The plate was pre-incubated for 10 min at room temperature (with negative control wells containing 10 uL of kinase buffer and 5 uL of 5% DMSO; positive control wells containing 10 μL of kinase solution and 5 uL of 5% DMSO). The reaction was initiated by adding 10 μL of ATP at a final concentration of 250 uM and the corresponding substrate peptide mixture at room temperature for 150 minutes. 30 uL of stop detection solution containing EDTA was added to stop the kinase reaction. Caliper EZ Reader was used to read the conversion rate. Conversion inhibition rate %=(average conversion rate of positive control %−conversion rate of sample %)/(average conversion rate of positive control %−average conversion rate of negative control %). wherein: negative control wells represent the conversion rate readings of wells without enzymatic activity; positive control wells represent conversion readings for wells with no compound inhibition. The log(inhibitor) vs. response—Variable slope of the analysis software GraphPad Prism 5 was used with log concentration value as the X-axis and the percent inhibition rate as the Y-axis to fit the dose-response curve, the IC50 value of each compound on the enzyme activity was thus obtained. Calculation formula: Y=Bottom+(Top−Bottom)/(1+10^((Log IC50−X)*HillSlope)).
(§2) The IC50 values and inhibitory activities of compounds of the present disclosure on CDK6/Cyclin D3, CDK2/Cyclin A2, and CDK9/cyclin T1 were tested in a similar manner.

Experiment [2] concerns the target CDK4/cyclin D3 (Homo sapiens (Human), UniProt P11802). Put plainly: Kinase activity assay (Caliper Mobility Shift Assay), CDK4/cyclin D3. The note with it: 10 nM kinase, 250 uM ATP. On the procedure: as §1
Experiment [3] deals with CDK6/Cyclin D3 (Homo sapiens (Human), UniProt Q00534). Kind of experiment: Kinase activity assay (Caliper Mobility Shift Assay), CDK6/Cyclin D3. On the procedure: as §1, §2
For experiment [4], the target named is CDK9/cyclin T1 (Homo sapiens (Human), UniProt P50750). Put plainly: Kinase activity assay (Caliper Mobility Shift Assay), CDK9/cyclin T1. On the procedure: as §1, §2

Some results are limits rather than exact numbers.

Sequence of CDK6/Cyclin D3 (Q00534 whole entry, species assumed): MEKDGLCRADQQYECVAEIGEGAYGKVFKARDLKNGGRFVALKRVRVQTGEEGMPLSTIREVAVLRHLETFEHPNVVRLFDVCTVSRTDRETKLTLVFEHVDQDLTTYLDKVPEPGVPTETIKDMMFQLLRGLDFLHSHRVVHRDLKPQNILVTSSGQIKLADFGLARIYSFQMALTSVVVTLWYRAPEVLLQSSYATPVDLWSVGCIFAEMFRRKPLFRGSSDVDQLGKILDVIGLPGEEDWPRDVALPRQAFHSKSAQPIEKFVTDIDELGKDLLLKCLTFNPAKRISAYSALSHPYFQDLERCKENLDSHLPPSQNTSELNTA
Sequence of CDK6/Cyclin D3 (P30281 whole entry partner, species assumed): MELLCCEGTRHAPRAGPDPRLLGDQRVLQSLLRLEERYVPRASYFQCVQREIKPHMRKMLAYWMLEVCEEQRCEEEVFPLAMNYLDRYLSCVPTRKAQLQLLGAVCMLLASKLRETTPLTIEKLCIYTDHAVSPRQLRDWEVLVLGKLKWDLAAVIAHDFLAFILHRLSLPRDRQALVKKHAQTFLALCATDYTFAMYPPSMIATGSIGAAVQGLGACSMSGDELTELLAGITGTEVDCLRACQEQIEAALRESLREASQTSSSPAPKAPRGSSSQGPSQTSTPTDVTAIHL
Sequence of CDK4/cyclin D3 (P11802 whole entry, species assumed): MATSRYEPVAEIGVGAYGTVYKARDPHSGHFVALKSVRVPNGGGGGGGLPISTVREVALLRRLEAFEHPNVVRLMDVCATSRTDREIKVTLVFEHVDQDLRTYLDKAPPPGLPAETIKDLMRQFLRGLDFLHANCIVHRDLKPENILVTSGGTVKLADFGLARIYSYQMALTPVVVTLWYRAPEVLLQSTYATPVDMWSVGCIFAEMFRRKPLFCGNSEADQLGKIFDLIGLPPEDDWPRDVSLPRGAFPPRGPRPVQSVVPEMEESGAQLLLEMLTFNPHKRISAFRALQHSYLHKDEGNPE
Sequence of CDK4/cyclin D3 (P30281 whole entry partner, species assumed): as the sequence (P30281 whole entry partner, species assumed) above
Sequence of CDK9/cyclin T1 (P50750 whole entry, species assumed): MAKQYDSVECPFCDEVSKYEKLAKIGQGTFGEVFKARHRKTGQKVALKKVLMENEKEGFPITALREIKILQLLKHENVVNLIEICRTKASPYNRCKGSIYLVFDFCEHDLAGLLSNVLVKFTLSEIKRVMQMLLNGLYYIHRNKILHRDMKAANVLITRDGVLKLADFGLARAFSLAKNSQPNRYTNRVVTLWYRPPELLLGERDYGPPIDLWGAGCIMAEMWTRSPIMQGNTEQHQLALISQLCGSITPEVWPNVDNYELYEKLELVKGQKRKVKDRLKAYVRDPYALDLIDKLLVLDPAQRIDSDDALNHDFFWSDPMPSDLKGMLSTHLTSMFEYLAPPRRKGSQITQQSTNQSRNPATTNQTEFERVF
Sequence of CDK9/cyclin T1 (O60563 whole entry partner, species assumed): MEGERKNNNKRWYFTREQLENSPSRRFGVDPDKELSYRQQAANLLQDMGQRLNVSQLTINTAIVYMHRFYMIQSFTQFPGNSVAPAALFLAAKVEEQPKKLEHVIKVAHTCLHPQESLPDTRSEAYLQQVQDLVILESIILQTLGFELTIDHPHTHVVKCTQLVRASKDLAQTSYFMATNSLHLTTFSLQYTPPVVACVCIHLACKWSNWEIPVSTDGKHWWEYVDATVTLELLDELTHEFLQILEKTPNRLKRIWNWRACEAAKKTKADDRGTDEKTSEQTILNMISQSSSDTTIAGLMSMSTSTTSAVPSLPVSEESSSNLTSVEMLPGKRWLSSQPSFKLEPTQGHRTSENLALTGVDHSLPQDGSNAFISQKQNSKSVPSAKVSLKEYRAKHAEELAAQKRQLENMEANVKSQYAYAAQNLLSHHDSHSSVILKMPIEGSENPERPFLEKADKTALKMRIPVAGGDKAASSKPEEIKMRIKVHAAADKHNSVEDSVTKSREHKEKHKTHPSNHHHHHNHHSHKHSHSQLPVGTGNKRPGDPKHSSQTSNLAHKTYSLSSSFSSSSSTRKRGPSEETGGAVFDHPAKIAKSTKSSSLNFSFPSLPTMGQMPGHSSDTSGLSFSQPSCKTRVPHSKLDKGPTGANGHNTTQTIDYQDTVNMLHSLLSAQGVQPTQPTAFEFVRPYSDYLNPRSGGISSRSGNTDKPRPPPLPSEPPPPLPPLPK

On to `CC(C)c1noc2ccc3cnc(N[C@H]4CC[C@H](NC5CCOCC5)CC4)nc3c12` [I.1, (1R,4R)-N^1-(9-isopropylisoxazolo[5,4-h]quinazolin-2-yl)-N^4-(tetrahydro-2H-pyran-4-yl)cyclohexane-1,4-diamine], for which the IC50 in experiment [1] was found to be 0.042 µM; in experiment [2] it was 0.032 µM; in experiment [3], 0.036 µM; in experiment [4] it was 0.025 µM.
As for `CC(C)c1noc2ccc3cnc(N[C@H]4CC[C@H](NC5CCNCC5)CC4)nc3c12` [I.2, (1R,4R)-N^1-(9-isopropylisoxazolo[5,4-h]quinazolin-2-yl)-N^4-(piperidin-4-yl)cyclohexane-1,4-diamine], the IC50 in experiment [1] amounted to 0.012 µM; in experiment [2], 0.022 µM; in experiment [3], 0.026 µM; in experiment [4], 0.016 µM.
On the same counts, the results for `CC(C)n1nnc2ccc3cnc(N[C@H]4CC[C@H](NC5CCOCC5)CC4)nc3c21` [II.2, (1R,4R)-N^1-(1-isopropyl-1H-[1,2,3]triazolo[4,5-h]quinazolin-8-yl)-N^4-(tetrahydro-2H-pyran-4-yl)cyclohexane-1,4-diamine] are 0.02 µM, 0.016 µM, 0.022 µM and 0.008 µM.
On the same counts, the results for `CC(C)n1nnc2ccc3cnc(N[C@H]4CC[C@H](N5CCN(CC6CCCC6)CC5)CC4)nc3c21` [II.8, N-((1R,4R)-4-(4-(cyclopentylmethyl)piperazin-1-yl)cyclo-hexyl)-1-isopropyl-1H-[1,2,3]triazolo[4,5-h]quinazolin-8-amine] are greater than 0.5 µM, 0.043 µM, 0.037 µM and 0.011 µM.
In the case of `CC(C)n1nnc2ccc3cnc(NC4CCCNC4=O)nc3c21` (stereo not shown) [II.36, 3-((1-isopropyl-1H-[1,2,3]triazolo[4,5-h]quinazolin-8-yl)amino)piperidin-2-one], the IC50 was greater than 0.5 µM in experiment [1], 0.253 µM in experiment [2] and 0.446 µM in experiment [3].
On the same counts, the results for `CC(C)n1nnc2c1-c1nc(NC3CCN(S(C)(=O)=O)CC3)ncc1CC2` [II.37, 1-isopropyl-N-(1-(methylsulfonyl)piperidin-4-yl)-4,5-dihydro-1H-[1,2,3]triazolo[4,5-h]quinazolin-8-amine] are 0.0005 µM, 0.004 µM and 0.012 µM.
With `CC(C)n1nnc2c1-c1nc(NC3CCN(S(=O)(=O)C4CC4)CC3)ncc1CC2` [II.38, N-(1-(cyclopropylsulfonyl)piperidin-4-yl)-1-isopropyl-4,5-dihydro-1H-[1,2,3]triazolo[4,5-h]quinazolin-8-amine], the IC50 in experiment [1] came out at 0.0003 µM; in experiment [2] it was 0.003 µM; in experiment [3], 0.007 µM.
On to `CC(C)n1nnc2c1-c1nc(NC3CCN(S(=O)(=O)C(F)F)CC3)ncc1CC2` [II.39, N-(1-((difluoromethyl)sulfonyl)piperidin-4-yl)-1-isopropyl-4,5-dihydro-1H-[1,2,3]triazolo[4,5-h]quinazolin-8-amine], for which the values for the IC50 in experiment [1], in experiment [2] and in experiment [3] were 0.0005 µM, 0.003 µM and 0.01 µM, respectively.

Broadly, the IC50 is the point on the concentration scale where inhibition reaches its midpoint.
